In patent US9605004B2, “Chemical compounds” (SYNGENTA LIMITED, priority 2013, dated 2017):

How the values were obtained:
[1] = tested on: a variety of test species; test: Post-emergence herbicidal activity (Example 8b, Table 3); assay type: in vivo; conditions: application post-emergence, rate 1000 g/ha, evaluated after 13 days, scale 0-5; for Herbicidal damage score, ABUTH: Abutilon theophrasti; for Herbicidal damage score, ALOMY: Alopecurus myosuroides; for Herbicidal damage score, AMARE: Amaranthus retroflexus; for Herbicidal damage score, ECHCG: Echinochloa crus-galli; for Herbicidal damage score, SETFA: Setaria faberi; for Herbicidal damage score, ZEAMX: Zea mays
Outline: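 Foliar application to 8-day-old plants using a 0.5% Tween 20 acetone/water carrier; phytotoxicity is scored visually from 0 to 5 after 13 days of growth at 24/16 °C day/night.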

[2] = tested on: a variety of test species; test: Pre-emergence herbicidal activity (Example 8a, Table 2); assay type: in vivo; design: key: 0 = no damage to plant, 5 = total damage to plant; conditions: application pre-emergence, rate 1000 g/ha, evaluated after 13 days
Outline: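 Visual 0–5 injury score (5 = total damage) taken 13 days after spraying. Treatment applied one day after sowing, before emergence; glasshouse at 24/16 °C day/night, 14 h photoperiod, 65% humidity.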

Row | Structure (SMILES) | Herbicidal damage score, ABUTH [1] | Herbicidal damage score, ALOMY [1] | Herbicidal damage score, AMARE [1] | Herbicidal damage score, ECHCG [1] | Herbicidal damage score, SETFA [1] | Herbicidal damage score, ZEAMX [1] | Pre-emergence herbicidal activity, damage score ABUTH [2] | Pre-emergence herbicidal activity, damage score ALOMY [2] | Pre-emergence herbicidal activity, damage score AMARE [2] | Pre-emergence herbicidal activity, damage score ECHCG [2] | Pre-emergence herbicidal activity, damage score SETFA [2] | Pre-emergence herbicidal activity, damage score ZEAMX [2]
1 | CC1=C(Cl)C(=O)N(c2cc3n(n2)CCC3(C)C)C1O (stereo not drawn) [Compound G2] | 5 | 5 | 5 | 5 | 5 | 4 | 5 | 4 | 5 | 5 | 5 | 4
2 | CC1=C(Cl)C(=O)N(c2cc3n(n2)CCC3(C)C)C1O (stereo not drawn) [Compound G8] | 5 | 5 | 5 | 5 | 5 | 4 | 5 | 4 | 5 | 5 | 5 | 4
